# Several values for one entry are separate records, joined by “and”; a condition that tells them apart may be missing. Equal entries are not always repeated.
# Legend:
# [1] = system: hematopoietic cell subsets in the spleen; experiment: In vivo selection with MFM vector: flow cytometry of hematopoietic cell subsets in the spleen; parameters: species or system B6D2F1 mice; TER119 (erythroid) cells in the spleen / CD11b (myeloid) cells in the spleen / CD41 (megakaryocytic) cells in the spleen / CD3 (T-lymphoid) cells in the spleen / B220 (B-lymphoid) cells in the spleen: unit not given here
# Experimental: (§1) Marrow cells from B6D2F1 mice were transduced as follows: fluorouracil, 150 mg/kg, was injected intraperitoneally into female B6D2F1 mice. Forty-eight hours later, marrow cells were harvested and cultured for 48 hours in DMEM containing 16% fetal calf serum, 5% IL-3 conditioned medium, 100 ng/ml recombinant IL-6, and 50 ng/ml recombinant murine stem cell factor in a 37° C., 5% CO2 incubator. After 48 hours of prestimulation, cells were transferred onto irradiated (1500 cGy) producer cells and cocultivated using identical growth conditions except for the addition of polybrene (8 μg per ml). The producer cells generate retroviral particles containing the MFM vector that are able to infect the bone marrow cells. Therefore, the MFM retrovirus is introduced into the bone marrow cells during the period of cocultivation. Marrow cells were harvested after 48 hours of cocultivation and 8×10^6 cells were injected into each of 10 lethally irradiated (1050 cGy) B6D2F1 mice. Immediately following transplantation, five mice received intraperitoneal injections of AP20187 daily at a dose of 2 mg/kg/day for forty consecutive days. Five control mice received daily injections of the drug diluent (see below) without AP20187.
# (§2) AP20187 was prepared as follows: Drug was solubilized in ethanol, then PEG 400 was added. Finally, a mixture of water and Tween 80 was added to achieve final concentrations of ethanol of 4%, PEG400 10% and Tween 1.4%.
# To characterize the types of cells expanding in response to AP20187, flow cytometry was performed using antibodies directed against myeloid (CD11b), erythroid (TER119), megakaryocytic (CD41), B-lymphoid (B-220) and T-lymphoid (CD3) cells.
# [2] = target: endogenous FKBP12 (Homo sapiens, UniProt P62942); experiment: Binding to endogenous FKBP12
# [3] = In vivo half life
# [4] = system: genetically modified progenitor cells in the spleen; experiment: In vivo selection with MFM vector: G418 resistant colonies in the spleen; parameters: species or system B6D2F1 mice; settings: after 40 days
# Experimental: as §1, §2
# (§3) After 40 days of drug administration, splenectomies were performed; spleens were weighed and spleen cells were tested in clonogenic assays to determine the frequency of genetically modified progenitor cells.
# [5] = system: cells; experiment: Immunosuppressive activity or other toxicity to cells; format: cell-based; settings: in experiments to date
# [6] = system: MH cells expressing chimeric receptors; experiment: DNA synthesis (BrdU incorporation) in MH cells expressing FKBP chimeric receptors; format: cell-based, monkey (Macaca fascicularis); settings: serum-starved MH cells, 3 days after AP20187 addition; compared with nonspecific induction by AP20187 alone
# Experimental: FIG. 5. DNA synthesis in MH cells expressing FKBP chimeric receptors after stimulation with AP20187. 5×10^4 MH cells were plated per well (24 well plate) in the presence of FCS. 24 hours after retrovirus infection, culture medium was replaced by serum-free medium and cells were starved for 6 days. At this time point AP20187 was added to one set of cells and BrdU incorporation was measured three days after induction. BrdU labeled cells were counted in four independent areas for each sample (N=3) and expressed as the percentage of BrdU (+) cells. The (+) and (−) symbols after the chimeric gene designations indicates the presence and absence of AP20187, respectively. […]
# To test the proliferation properties of MH cells, cellular DNA replication based on incorporation of BrdU was analyzed. […] After this, BrdU labeled DNA was detected in cell nuclei by immuno-histochemistry with BrdU-specific antibodies.
# Retroviruse vectors expressing the chimeric receptors provided in TABLE 9 were prepared as a means for gene transfer into hepatocytes. […] Next, the percentage of MH cells grown in the presence of FCS and HGF that can be transduced by an amphotropic β-Gal virus after an incubation of 5 hours at an MOI of 1 cfu per cell was determined. […] At this time point AP20187 was added to one set of cells and BrdU incorporation was measured three days after induction. […]
# [7] = system: spleen; experiment: In vivo selection with MFM vector: spleen weight; parameters: species or system B6D2F1 mice; settings: after 40 days
# Experimental: as §1, §2, §3
# [8] = system: genetically modified progenitor cells in the femur; experiment: In vivo selection with MFM vector: G418 resistant colonies in the femur (bone marrow aspirates); parameters: species or system B6D2F1 mice
# Experimental: as §1, §2
# The presence of the neo gene in the MFM vector allows the frequency of genetically modified progenitor cells to be determined by performing clonogenic assays either in the presence or absence of G418. After 32 days of drug administration, bone marrow aspirates were performed and the frequency of clonogenic progenitor cells was determined. Results are shown as follows:
# Sufficient numbers of bone marrow cells were obtained on the aspirates of one control and one drug treated mouse (numbers 191 and 195, respectively) to permit Southern analysis.
# [9] = system: primary murine bone marrow cells expressing the F36Vmpl fusion protein; experiment: Response of marrow cells expressing F36Vmpl (MFM vector) to AP20187; format: cell-based; settings: compared with FK1012 (data not shown)
# Source text: A MSCVneo-based retroviral vector encoding a fusion protein identical to F1mpl except for the presence of the F36V mutation was built and tested. This vector, MFM (FIG. 4), has been used to derive a genetically stable, high titer ecotropic producer cell line using the methods described in Example 5.
# [10] = group mean, spleen, flow cytometry
# [11] = individual mice, flow cytometry, after 40 days
# [12] = individual mice, 2 mg/kg/day i.p., 2 mg/kg/day
# endogenous FKBP12, sequence (P62942 whole entry, species assumed): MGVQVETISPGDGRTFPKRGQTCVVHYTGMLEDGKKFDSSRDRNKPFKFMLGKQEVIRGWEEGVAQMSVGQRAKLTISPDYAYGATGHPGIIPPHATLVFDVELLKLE
structure (smiles),measurement,setting,value
CC[C@H](C(=O)N1CCCC[C@H]1C(=O)O[C@H](CCc1ccc(OC)c(OC)c1)c1cccc(OCC(=O)NCC(CNC(=O)COc2cccc([C@@H](CCc3ccc(OC)c(OC)c3)OC(=O)[C@@H]3CCCCN3C(=O)[C@@H](CC)c3cc(OC)c(OC)c(OC)c3)c2)CN(C)C)c1)c1cc(OC)c(OC)c(OC)c1 [AP20187],"B220, mean (standard deviation)",[1]; [10],29.2 (5.1)
same,"CD3, mean (standard deviation)",[1]; [10],12.2 (8.2)
same,"CD11b, mean (standard deviation)",[1]; [10],10.2 (2.5)
same,"CD41, mean (standard deviation)",[1]; [10],1.4 (1.1)
same,"TER119, mean (standard deviation)",[1]; [10],27.7 (8.1)
same,B220 (B-lymphoid) cells in the spleen,[1]; [11],31.6 and 24.5 and 23.0 and 33.2 and 33.8
same,CD3 (T-lymphoid) cells in the spleen,[1]; [11],24.4 and 8.4 and 4.8 and 6.5 and 16.8
same,CD11b (myeloid) cells in the spleen,[1]; [11],9.5 and 7.8 and 12.8 and 8.2 and 13.0
same,CD41 (megakaryocytic) cells in the spleen,[1]; [11],0.7 and 0.5 and 1.1 and 3.3 and 1.4
same,TER119 (erythroid) cells in the spleen,[1]; [11],21.0 and 28.2 and 40.8 and 27.4 and 21.1
same,change in hematopoietic cell subsets in the spleen,[1]; versus control group,increase in myeloid (CD11b-positive) and erythroid (TER119-positive) cells in the spleen
same,binding to endogenous FKBP12,[2],does not bind to endogenous FKBP12
same,in vivo half life,[3],9 h
same,"G418 Resistant (spleen colonies), Mean",[4]; group mean (+/−),9 (+/−8.7%)
same,G418 Resistant (spleen colonies),[4]; [12],4.1% and 5.2% and 6.4% and 24.5% and 4.8%
same,percentage of genetically modified progenitor cells in the spleen,[4]; versus control group,increased percentage of genetically modified progenitor cells in the spleen that did not achieve statistical significance
same,immunosuppressive activity or other toxicity to cells,[5],no immunosuppressive activity or other toxicity to cells
same,effect on DNA proliferation (BrdU incorporation),[6],clear effect on DNA proliferation in MH expressing chimeric receptors
same,"Spleen Weight, Mean",[7]; group mean (+/−),208.9 (+/−43.5) mg
same,Spleen Weight,[7]; [12],200 mg and 190 mg and 279 mg and 213 mg and 162 mg
same,spleen size,[7]; versus control group,significant increase in spleen size
same,mean number of G418 resistant colony forming cells in the femur relative to control group,"[8]; after 32 days, did not achieve statistical significance",approximately 2 fold
same,"Percentage of G418 Resistant Colonies (femur), Mean","[8]; group mean (+/−), 2 mg/kg/day i.p., after 32 days",20.9 (+/−13.3) %
same,Percentage of G418 Resistant Colonies (femur),"[8]; individual mice, 2 mg/kg/day i.p., after 32 days of drug administration, 2 mg/kg/day",39.3% and 14.7% and 17.7% and 28.1% and 4.6%
same,proviral signal by Southern analysis of bone marrow aspirates,[8]; one drug treated mouse (195) versus one control (191),detectable only in the mouse that had received AP20187
same,proliferative and differentiative responses,[9],indistinguishable from those we have observed using FK1012

# — patent US7754202B1, “Methods of controlling cell differentiation and growth using a fusion protein and a drug” (Stanford University, priority 1998, dated 2010)
